The results in this text go back to US9957273B2, “5-substituted 7- [4-(2-pyridyl)phenylmethylamino] -3-isopropylpyrazolo4,3-D]pyrimidine derivatives, use thereof as medicaments, and pharmaceutical compositions” (USTAV EXPERIMENTALNI BOTANIKY AV CR, V.V.I., priority 2015, dated 2018).

In assay [1] the test system is Mdm-2. As to the kind of experiment: Immunoblotting of apoptotic markers in HCT116 cells: Mdm-2. It counts as cell-based. The following applies: 24 hours, FIG. 4. The protocol:
(§1) Effect of novel compounds on apoptosis was confirmed by immunoblotting analysis of selected apoptotic proteins. For immunoblotting, cell were harvested, washed three times with ice-cold PBS and lysed in a buffer (50 mM Tris, pH 7.4, 250 mM NaCl, 5 mM EDTA, 50 mM NaF, 1 mM Na3VO4, 1% Nonidet P40) containing mixture of protease and phosphatase inhibitors (Sigma-Aldrich). 20 μg of total proteins were separated by SDS-polyacrylamide gel electrophoresis (SDS-PAGE) and transferred onto nitrocellulose membranes. Membranes were blocked in 5% milk and 0.1% Tween 20 in PBS and probed overnight with specific antibodies. Specific antibodies were purchased from SigmaAldrich (anti a-tubulin, clone DM1A), Santa Cruz Biotechnology (anti-Mcl-1, clone S-19; anti-PARP, clone F-2; anti-Mdm-2, clone SMP14; anti-Bcl-2), DAKO Cytomation Cell Signaling (anti-PUMA) or were a generous gift from Dr. B. Vojtesek (anti-p53, clone DO-1). All primary antibodies were diluted in PBS containing 5% powdered milk; 0.1% Tween 20. Peroxidase conjugated rabbit anti-mouse immunoglobulin or porcine anti-rabbit immunoglobulin antisera (DAKO) were used as the secondary antibodies and visualised with ECL reagents (GE-Healthcare Life Sciences).
(A western blot detects proteins with antibodies after separation by electrophoresis.)

Assay [2] deals with T1, CDK2/Cyclin E (Homo sapiens, UniProt P24941).
T1 construct: made in house; host or cells: Sf9 insect cells (baculovirus)
Kind of assay: CDK2/Cyclin E kinase inhibition (33P-ATP, histone H1). It counts as biochemical. The following applies: 15 μM ATP. On the procedure:
CDK2/Cyclin E kinase was produced in Sf9 insect cells via baculoviral infection and purified on a NiNTA column (Qiagen). The kinase reactions were assayed with 1 mg/mL histone H1 in the presence of 15 μM ATP, 0.05 μCi [γ-^33P]ATP and of the test compound in a final volume of 10 μL, all in a reaction buffer (60 mM HEPES-NaOH, pH 7.5, 3 mM MgCl2, 3 mM MnCl2, 3 μM Na-orthovanadate, 1.2 mM DTT, 2.5 μg/50 μl PEG20.000). CDK5/p35 was purchased from ProQinase GmbH. The kinase reactions were assayed with 1 mg/mL histone H1 in the presence of 0.15 μM ATP, 0.05 μCi [γ-^33P]ATP and of the test compound in a final volume of 10 μL, all in a reaction buffer (60 mM HEPES-NaOH, pH 7.5, 3 mM MgCl2, 3 mM MnCl2, 3 μM Na-orthovanadate, 1.2 mM DTT, 2.5 μg/50 μl PEG20.000).
The reactions were stopped by adding 5 μL of 3% aq H3PO4. Aliquots were spotted onto P-81 phosphocellulose (Whatman), washed 3× with 0.5% aq H3PO4 and finally air-dried.

Assay [3] deals with MCF7 (breast adenocarcinoma). Kind of assay: MTT cytotoxicity assay, solid cancer cell line MCF7. It counts as cell-based. As to conditions: Homo sapiens, MCF7, 72 h, three days. The method, boiled down:
(§2)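 Three-day compound exposure (100 to 0.01 μM) followed by a five-hour MTT incubation and absorbance reading at 620 nm after DMSO dissolution.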
(Tetrazolium dyes change colour on reduction, which living cells bring about.)

The test system of assay [4] is CEM (human lymphoblastoid leukaemia). As to the kind of experiment: MTT cytotoxicity assay, leukemic cell line CEM. The assay is classed as cell-based. As to conditions: Homo sapiens, 72 h, three days. In short, it runs like this:
(§3)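 Cells in RPMI with FBS and L-glutamine at 37 °C, 5% CO2, seeded 2000-5000/well, stabilized ≥8 h, then exposed to compounds at 100 to 0.01 μM in triplicate for three days. MTT added, formazan dissolved in DMSO after five hours and read at 620 nm against untreated cells; three repeats.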

For assay [5], the system named is PANC-1 (pancreatic carcinoma). As to the kind of experiment: MTT cytotoxicity assay, solid cancer cell line PANC-1. It counts as cell-based. The following applies: Homo sapiens, PANC-1, 72 h, three days. In short, it runs like this:
as §2

For assay [6], the system named is HCT116 (colon carcinoma). Kind of assay: MTT cytotoxicity assay, solid cancer cell line HCT116. As to conditions: Homo sapiens, HCT-116, 72 h, three days. The assay is classed as cell-based. The method, boiled down:
as §2

Assay [7] concerns K562 (human chronic myelogenous leukaemia). Kind of assay: MTT cytotoxicity assay, leukemic cell line K562. It counts as cell-based. As to conditions: Homo sapiens, K562, 72 h, three days. In short, it runs like this: as §3
Assay [8] relates to p53. Kind of assay: Immunoblotting of apoptotic markers in HCT116 cells: p53. As to conditions: 24 hours, FIG. 4. The assay is classed as cell-based. The protocol: as §1
For assay [9], the system named is HL60 (human promyelocytic leukaemia). Kind of assay: MTT cytotoxicity assay, leukemic cell line HL60. It counts as cell-based. The following applies: Homo sapiens, HL-60, 72 h, three days. The method, boiled down:
as §3

Usually IC50 stands for the concentration needed to halve the response being measured. A low value points to greater potency in that assay.

For the compound `CC(C)c1[nH]nc2c(NCc3ccc(-c4ccccn4)cc3)nc(NCC(O)CN)nc12` (stereo not drawn) [Compound 45], the “expression of Mdm-2 (immunoblot)” value in assay [1] is reported as “decreased expression”. The IC50 in assay [2] is 0.051 µM; in assay [3], 0.31 µM; in assay [4] it was 0.54 µM; in assay [5], 0.32 µM; in assay [6] it was 0.37 µM; in assay [7], 0.7 µM. The IC50 in assay [9] was found to be 0.62 µM. Moreover, in [8], the “expression of tumor suppressor protein p53 (immunoblot)” value was “rapidly increased the expression”.
